From ChEMBL document CHEMBL1201862, “PubChem BioAssay data set” (2004) come the findings set out here.

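Protocol summary: plate cells (96-well), add compound at 5 concentrations, incubate 48 h, interpolate endpoints linearly. Abbreviation: GI50, concentration required for 50% inhibition of growth.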 Calls of active or inactive are those of the source. Cut-off read from the data, not from the text of the source: active = GI50 up to about 1.1 µM and inactive = higher.

Among the test systems are SF-539; DU-145; T47D; NCI-H23; MDA-N; TK-10; MCF7; HCT-15; MDA-MB-435; HCC 2998; K562; OVCAR-8; MOLT-4; KM12; SR; HL-60; SN12C; A549; COLO 205.
Assay in all cases: inhibition of tumour cell growth, NCI panel, 48 h

On to `O=[N+]([O-])c1ccc(/C=N/n2c(S)nnc2CCc2nnc(S)n2/N=C/c2ccc([N+](=O)[O-])o2)o1`, for which the GI50 is 41.5 µM (inactive) in the experiment with SF-539; 16.2 µM (inactive) in the experiment on DU-145; 23.1 µM (inactive) with T47D; 16.7 µM (inactive) in the experiment on NCI-H23; 13.8 µM (inactive) in the experiment with MDA-N; 84.1 µM (inactive) in the experiment on TK-10. Besides, the GI50 was 18.1 µM (inactive) in the experiment with MCF7; 15.9 µM in the experiment with HCT-15; 17.6 µM (inactive) in the experiment with MDA-MB-435; 17.6 µM (inactive) with HCC 2998; 28.6 µM (inactive) in the experiment on K562; 31.9 µM (inactive) in the experiment with OVCAR-8. Also, the GI50 was 24.8 µM (inactive) with MOLT-4, 22.8 µM (inactive) in the experiment on KM12, 28.3 µM (inactive) in the experiment on SR and 33.6 µM (inactive) with HL-60.

As to `Nc1c(Br)cc(-c2nc3ccccc3s2)cc1Br`, the GI50 is > 100 µM (inactive) with SF-539; > 100 µM (inactive) in the experiment with DU-145; > 100 µM (inactive) in the experiment with T47D; > 100 µM (inactive) with SN12C; > 100 µM (inactive) in the experiment with MDA-N; 6.85 µM (inactive) in the experiment on TK-10. Besides, the GI50 was 18.9 µM (inactive) in the experiment on MCF7; above 100 µM in the experiment on HCT-15; > 100 µM (inactive) in the experiment on MDA-MB-435; 30.6 µM (inactive) in the experiment with HCC 2998; > 100 µM (inactive) with K562; > 100 µM (inactive) with OVCAR-8. Moreover, the GI50 is > 100 µM (inactive) in the experiment with MOLT-4; 75.7 µM (inactive) in the experiment with KM12; > 100 µM (inactive) with A549; > 100 µM (inactive) in the experiment on SR; > 100 µM (inactive) with COLO 205; > 100 µM (inactive) in the experiment on HL-60.

As to `O=C(O)/C=C\C(=O)Nn1c(Cc2ccc(Cl)cc2)n[nH]c1=O`, the GI50 in the experiment with SF-539, with DU-145, with T47D, in the experiment with NCI-H23, in the experiment on SN12C and with MDA-N was > 100 µM (inactive) each time. For the same molecule, the GI50 in the experiment with TK-10 is > 100 µM (inactive); in the experiment with MCF7, > 100 µM (inactive); with HCT-15, above 100 µM; in the experiment with MDA-MB-435 it was > 100 µM (inactive); in the experiment with HCC 2998, > 100 µM (inactive); with K562, > 100 µM (inactive). Also, the GI50 in the experiment on OVCAR-8, with MOLT-4, with A549, with SR, with COLO 205 and with HL-60 was > 100 µM (inactive) each time.

With `CC(C)(Oc1ccc(Cl)cc1)C(=O)N(C(=O)N1CCN(c2ccccc2)CC1)c1ccccc1`, the GI50 is 34.4 µM (inactive) in the experiment with SF-539; > 100 µM (inactive) in the experiment with DU-145; 5.48 µM (inactive) in the experiment on T47D; 8.83 µM (inactive) in the experiment with NCI-H23; 42.3 µM (inactive) in the experiment with SN12C; 62.8 µM (inactive) in the experiment on MDA-N. Moreover, the GI50 in the experiment with TK-10 was 68.5 µM (inactive); in the experiment on MCF7, 8.59 µM (inactive); in the experiment with HCT-15 it was 6.61 µM; in the experiment with MDA-MB-435, 16.2 µM (inactive); in the experiment on HCC 2998 it was 92.5 µM (inactive); in the experiment with K562 it was 3.96 µM (inactive). Moreover, the GI50 is > 100 µM (inactive) in the experiment with OVCAR-8; 4.12 µM (inactive) in the experiment with MOLT-4; 6.22 µM (inactive) in the experiment with KM12; 7.46 µM (inactive) with A549; 3.76 µM (inactive) with SR; 6.49 µM (inactive) in the experiment on COLO 205. Further, the GI50 in the experiment on HL-60 is 4.16 µM (inactive).

As for `COc1c(C(=O)/C(=N/Nc2ccc(C(=O)O)cc2)C(C)=O)c(O)cc2occc12`, the GI50 in the experiment on SF-539 was > 100 µM (inactive); with DU-145 it was > 100 µM (inactive); in the experiment with T47D, > 100 µM (inactive); with NCI-H23 it was > 100 µM (inactive); in the experiment on SN12C, > 100 µM (inactive); in the experiment on MDA-N it was 35.7 µM (inactive). The GI50 in the experiment on TK-10 was 15.6 µM (inactive); in the experiment on MCF7 it was > 100 µM (inactive); with HCT-15, 93.8 µM; in the experiment on MDA-MB-435 it was 46.7 µM (inactive); with HCC 2998, > 100 µM (inactive); in the experiment with K562, > 100 µM (inactive). In addition, the GI50 was > 100 µM (inactive) in the experiment on OVCAR-8; > 100 µM (inactive) with MOLT-4; 55 µM (inactive) in the experiment with KM12; > 100 µM (inactive) with A549; 68.9 µM (inactive) with SR; > 100 µM (inactive) in the experiment on COLO 205. In the experiment with HL-60, the GI50 was 42.8 µM (inactive).

With `CC(=O)OCC(C)C1=C(OC(C)=O)C(=O)C2(C)C/C=C(/C)CC/C=C(\C)CCC(OC(C)=O)C(C)CCC12` (centres undefined), the GI50 with SF-539 was 22.2 µM (inactive); in the experiment with DU-145 it was 20.1 µM (inactive); in the experiment on T47D, 16.1 µM (inactive); with SN12C, 20.1 µM (inactive); in the experiment on MDA-N, 17.1 µM (inactive); with TK-10, 19.6 µM (inactive). In addition, the GI50 with MCF7 was 21.3 µM (inactive); in the experiment with HCT-15 it was 16.9 µM; in the experiment with MDA-MB-435 it was 15.9 µM (inactive); with HCC 2998, 15.8 µM (inactive); with K562, 13.3 µM (inactive); in the experiment on OVCAR-8, 19.1 µM (inactive). Further, the GI50 is 12.9 µM (inactive) in the experiment with MOLT-4; 17.8 µM (inactive) in the experiment on KM12; 17.9 µM (inactive) in the experiment with SR; 20.8 µM (inactive) in the experiment on COLO 205; 10.9 µM (inactive) in the experiment with HL-60.

Take `Cc1ccc2c(c1)OC1Nc3ccccc3C1=C2O` (centres undefined): the GI50 in the experiment with SF-539 was 20.1 µM (inactive); in the experiment with DU-145, 25.5 µM (inactive); in the experiment with T47D it was 20.3 µM (inactive); with NCI-H23, 23.7 µM (inactive); in the experiment with SN12C, 27.3 µM (inactive); in the experiment on MDA-N, 24.7 µM (inactive). Moreover, the GI50 is 22.9 µM (inactive) in the experiment with TK-10; 17.2 µM (inactive) in the experiment on MCF7; 25.1 µM in the experiment with HCT-15; 26.2 µM (inactive) in the experiment on MDA-MB-435; 14.2 µM (inactive) in the experiment on HCC 2998; 25.9 µM (inactive) with K562. Besides, the GI50 in the experiment on OVCAR-8 is 35 µM (inactive); in the experiment with MOLT-4 it was 32.1 µM (inactive); with KM12 it was 26.4 µM (inactive); in the experiment with A549, 23.4 µM (inactive); in the experiment with SR, 31.2 µM (inactive); in the experiment on COLO 205 it was 14.8 µM (inactive). The GI50 with HL-60 was 16.2 µM (inactive).

With `CCCC(=O)N/S(=N/S(=O)(=O)c1ccc(Cl)cc1)C(Cl)(Cl)Cl` (centres undefined), the GI50 in the experiment on SF-539, in the experiment on DU-145, in the experiment on T47D, with NCI-H23, with SN12C and in the experiment on MDA-N was > 100 µM (inactive) throughout. Further, the GI50 is > 100 µM (inactive) with TK-10; > 100 µM (inactive) in the experiment on MCF7; above 100 µM in the experiment on HCT-15; > 100 µM (inactive) with MDA-MB-435; > 100 µM (inactive) with HCC 2998; > 100 µM (inactive) with K562. Besides, the GI50 with OVCAR-8, in the experiment with MOLT-4, with KM12, with A549, in the experiment with SR and in the experiment with HL-60 was > 100 µM (inactive) in each case.
